Among the data in ChEMBL document CHEMBL5727703, “Bicyclic hydroxamic acids useful as inhibitors of mammalian histone deacetylase activity” (2020) are IC50 values, retold here.

The target in this assay is T1, Protein deacetylase HDAC6 (Homo sapiens, UniProt Q9UBN7).
T1 sequence (Q9UBN7 whole entry): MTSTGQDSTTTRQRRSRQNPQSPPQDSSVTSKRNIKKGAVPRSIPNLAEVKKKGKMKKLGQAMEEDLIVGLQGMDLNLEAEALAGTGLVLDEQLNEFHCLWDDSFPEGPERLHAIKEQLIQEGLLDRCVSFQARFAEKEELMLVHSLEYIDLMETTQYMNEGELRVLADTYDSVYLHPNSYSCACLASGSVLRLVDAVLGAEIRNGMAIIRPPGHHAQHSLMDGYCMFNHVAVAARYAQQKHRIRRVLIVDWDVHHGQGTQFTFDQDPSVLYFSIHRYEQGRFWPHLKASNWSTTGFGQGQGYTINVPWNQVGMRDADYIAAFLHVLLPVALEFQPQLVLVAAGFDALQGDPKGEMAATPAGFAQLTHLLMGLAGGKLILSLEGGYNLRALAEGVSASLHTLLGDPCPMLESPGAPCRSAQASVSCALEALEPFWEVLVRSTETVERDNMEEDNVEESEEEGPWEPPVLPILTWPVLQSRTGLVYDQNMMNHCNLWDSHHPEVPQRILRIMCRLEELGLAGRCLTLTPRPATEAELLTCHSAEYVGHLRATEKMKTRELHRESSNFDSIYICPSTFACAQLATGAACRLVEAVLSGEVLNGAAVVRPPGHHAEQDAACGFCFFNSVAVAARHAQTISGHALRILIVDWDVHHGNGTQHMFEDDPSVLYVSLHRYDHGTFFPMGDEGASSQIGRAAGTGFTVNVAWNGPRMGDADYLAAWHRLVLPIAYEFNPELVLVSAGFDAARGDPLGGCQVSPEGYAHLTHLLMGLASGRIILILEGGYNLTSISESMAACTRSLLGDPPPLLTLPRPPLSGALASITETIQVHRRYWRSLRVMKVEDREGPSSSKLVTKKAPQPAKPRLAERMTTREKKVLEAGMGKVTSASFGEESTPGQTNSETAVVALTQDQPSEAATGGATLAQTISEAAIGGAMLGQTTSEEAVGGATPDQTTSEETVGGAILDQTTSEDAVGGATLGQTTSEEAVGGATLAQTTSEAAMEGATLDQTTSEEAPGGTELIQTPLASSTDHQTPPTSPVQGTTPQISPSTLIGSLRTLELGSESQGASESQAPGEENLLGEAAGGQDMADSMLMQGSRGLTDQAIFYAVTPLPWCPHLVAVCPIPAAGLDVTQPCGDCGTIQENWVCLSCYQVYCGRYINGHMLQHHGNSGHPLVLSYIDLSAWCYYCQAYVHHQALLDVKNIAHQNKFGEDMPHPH
The assay can be described thus: In Vitro Enzymatic Assay: The assay principle is well known and all necessary reagents like enzymes, substrates, developer and reference compounds are commercially available. Stock solutions (10 mM in DMSO) of compounds were serially diluted 1:3 in 11 concentrations with a top concentration of 200 μM for HDAC1,2,3 and 2 μM for HDAC6 and HDAC8. The enzymatic reactions were conducted in a mixture containing assay buffer, bovine serum albumin, HDAC substrate, and a test compound. After enzymatic reaction, developer was added and after an additional incubation time, fluorescence intensity was measured at an excitation wavelength of 360 nm and an emission wavelength of 460 nm. All experiments were performed in duplicate.

`Cn1cc(CNCC2CCN(c3nc4cc(C(=O)NO)ccc4o3)CC2)c2ccccc21`: the IC50 (usually the concentration needed to halve the response being measured) worked out at 41 nM.
